Test results taken from patent US9481636B2, “N-benzylaniline derivative and uses thereof” (Nanjing Medical University, priority 2011, dated 2016).

Test system: OGD-injuried neurons (primary cortical neurons)
Assay: Cell viability assay: LDH release by OGD-injured primary cortical neurons
Assay type: cell-based, mice
Settings: drug concentration 10^−6 M/L, OGD 2 hours, LDH after 8 hours; for inhibition at 1 µM: Mus musculus, Primary cortical neuron
Procedure: After primary neurons were cultured for 9 days, the medium was replaced by DMEM high glucose medium containing 1% FBS, serum-starved overnight and then washed twice with OGD culture solution. This OGD culture solution contains DMEM medium, 1% FBS, 1% penicillin/streptomycin and B27, and contains no sugar. Then, the primary neurons were incubated with the test drugs for 30 minutes, OGD culture solution was added into an anaerobic tank and oxygen-deprived for 2 hours. The OGD culture solution was discarded, and replaced by oxygen-saturated DMEM medium containing 1% FBS, 1% penicillin/streptomycin and B27. After 8 hours the culture solution was collected to measure LDH level.
After the primary cortical neurons were treated with various processes, neuronal culture solution in six-well plates was pipetted to a 1.5 mL plastic centrifuge tube; cells were washed three times with PBS solution and each well was added PBS 1000 μl. The cells were freezed and thawed repeated for three times, centrifuged at 12000′ g for 5 minutes at 4° C., and the supernatant was removed for use. The activity of LDH enzyme was determined with 50 μl culture solution and 25 μl supernatant using lactate dehydrogenase kit.
Protective Effects of the Objective Compounds Against Primary Cortical Neuronal Injury Cultured In Vitro (See Table 2)

Molecule | Inhibition of LDH release (%) | inhibition at 1 µM
CC1(C)C2CCC1(C)C(OC(=O)c1ccc(NCc3cc(Cl)ccc3O)cc1O)C2 (centres unmarked) [ZL006-66, bornyl-2-hydroxy-4-(2-hydroxy-5-chlorobenzyl) aminobenzoate] | 13.3% | 
CC(=O)N(Cc1cc(F)cc(Cl)c1O)c1ccc(C(=O)OC2CC3CCC2(C)C3(C)C)c(O)c1 (centres unmarked) [ZL006-62, bornyl-2-hydroxy-4-[N-(2-hydroxy-3-chloro-5-fluorobenzyl)-N-acetyl]aminobenzoate] | 50.1% | 
CC1(C)C2CCC1(C)C(OC(=O)c1ccc(NCc3cc(C(F)(F)F)cc(Cl)c3O)cc1O)C2 (centres unmarked) [ZL006-47, bornyl-2-hydroxy-4-(2-hydroxy-3-chloro-5-trifluoromethylbenzyl)aminobenzoate] |  | 84.2%
CCCCOc1cc(NCc2cc(Br)cc(Cl)c2O)ccc1C(=O)OC1CC2CCC1(C)C2(C)C (centres unmarked) [ZL006-42, bornyl-2-n-butoxy-4-(2-hydroxy-3-chloro-5-bromobenzyl) aminobenzoate] | 37.7% | 
CC1(C)C2CCC1(C)C(OC(=O)c1ccc(NCc3cc(Br)ccc3O)cc1O)C2 (centres unmarked) [ZL006-63, bornyl-2-hydroxy-4-(2-hydroxy-5-bromobenzyl) aminobenzoate] | 22.8% | 
CC(=O)Oc1c(Cl)cc(C(F)(F)F)cc1CNc1ccc(C(=O)OC2CC3CCC2(C)C3(C)C)c(O)c1 (centres unmarked) [ZL006-80, bornyl-2-hydroxy-4-(2-acetyloxy-3-chloro-5-trifluoromethylbenzyl)aminobenzoate] |  | 41.1%
CCCCOc1cc(NCc2cc(C(F)(F)F)cc(Cl)c2O)ccc1C(=O)OC1CC2CCC1(C)C2(C)C (centres unmarked) [ZL006-50, bornyl-2-n-butoxy-4-(2-hydroxy-3-chloro-5-trifluoromethylbenzyl)aminobenzoate] |  | 40.2%
COC(=O)c1ccc(N(Cc2cc(Cl)cc(Cl)c2O)C(C)=O)cc1OC(C)=O [ZL006-81, methyl 2-acetyloxy-4-[N-(2-hydroxy-3,5-dichlorobenzyl)-N-acetyl]aminobenzoate] | 31.8% | 
CN(Cc1cc(Cl)cc(Cl)c1O)c1ccc(C(=O)O)c(O)c1 [ZL006-09, 2-hydroxy-4-[N-(2-hydroxy-3,5-dichlorobenzyl)-N-methyl]aminobenzoic acid] | 29.5% | 
CC(=O)Oc1cc(NCc2cc(F)cc(Cl)c2O)ccc1C(=O)OC1CC2CCC1(C)C2(C)C (centres unmarked) [ZL006-59, bornyl-2-acetyloxy-4-(2-hydroxy-3-chloro-5-fluorobenzyl) aminobenzoate] | 61.7% | 
CC(=O)Oc1cc(NCc2cc(F)cc(Cl)c2O)ccc1C(=O)OC1CC2CCC1(C)C2(C)C (centres unmarked) [ZL006-07, bornyl-2-acetyloxy-4-(2-hydroxy-3-chloro-5-fluorobenzyl) aminobenzoate] | 20.7% | 
CC(=O)Oc1cc(NCc2cc(Cl)cc(Cl)c2O)c(Cl)cc1C(=O)OC1CC2CCC1(C)C2(C)C (centres unmarked) [ZL006-18, bornyl-2-acetyloxy-4-(2-hydroxy-3,5-dichlorobenzyl) amino-5-chlorobenzoate] | 41.5% | 
CC(=O)Oc1cc(NCc2cc(C(F)(F)F)ccc2O)ccc1C(=O)OC1CC2CCC1(C)C2(C)C (centres unmarked) [ZL006-74, bornyl-2-acetyloxy-4-(2-hydroxy-5-trifluoromethylbenzyl)aminobenzoate] |  | 24.7%
CN(Cc1cc(Cl)cc(Cl)c1O)c1ccc(O)c(C(=O)O)c1 [ZL006-12, 2-hydroxy-5-[N-(2-hydroxy-3,5-dichlorobenzyl)-N-methyl]aminobenzoic acid] | 15.1% | 
CN(Cc1cc(Br)cc(Cl)c1O)c1ccc(C(=O)OC2CC3CCC2(C)C3(C)C)c(O)c1 (centres unmarked) [ZL006-45, bornyl-2-hydroxy-4-[N-(2-hydroxy-3-chloro-5-bromobenzyl)-N-methyl]aminobenzoate] | 67.2% | 
COc1cc(NCc2cc(C(F)(F)F)cc(Cl)c2O)ccc1C(=O)OC1CC2CCC1(C)C2(C)C (centres unmarked) [ZL006-49, bornyl-2-methoxy-4-(2-hydroxy-3-chloro-5-trifluoromethylbenzyl)aminobenzoate] |  | 32.6%
methyl 2-(bornyl-2-carbonylethoxy)-4-[N-(2-hydroxy-3,5-dichlorobenzyl)-N-acetyl]aminobenzoate [ZL006-35] | 12.8% | 
CCCCCC(=O)Oc1cc(NCc2cc(Cl)cc(Cl)c2O)ccc1C(=O)OC1CC2CCC1(C)C2(C)C (centres unmarked) [ZL006-24, bornyl-2-hexanoyloxy-4-(2-hydroxy-3,5-dichlorobenzyl) aminobenzoate] | 31.2% | 
CC(=O)Oc1c(Cl)cc(Cl)cc1CNc1ccc(C(=O)OC2CC3CCC2(C)C3(C)C)c(O)c1 (centres unmarked) [ZL006-76, bornyl-2-hydroxy-4-(2-acetyloxy-3,5-dichlorobenzyl) aminobenzoate] | 40.5% | 
CC(=O)Oc1c(C(=O)OC2CC3CCC2(C)C3(C)C)ccc(NCc2cc(Cl)cc(Cl)c2O)c1Cl (centres unmarked) [ZL006-19, bornyl-2-acetyloxy-3-chloro-4-(2-hydroxy-3,5-dichlorobenzyl)aminobenzoate] |  | 23.9%
COc1cc(NCc2cc(Cl)cc(Cl)c2O)c(Cl)cc1C(=O)OC1CC2CCC1(C)C2(C)C (centres unmarked) [ZL006-25, bornyl-2-methoxy-4-(2-hydroxy-3,5-dichlorobenzyl) amino-5-chlorobenzoate] | 30.6% | 
CC(=O)Oc1ccc(NCc2cc(Cl)cc(Cl)c2O)cc1C(=O)OC1CC2CCC1(C)C2(C)C (centres unmarked) [ZL006-02, bornyl-2-acetyloxy-5-(2-hydroxy-3,5-dichlorobenzyl) aminobenzoate] | 21.4% | 
CC1(C)C2CCC1(C)C(OC(=O)c1cc(NCc3cc(Br)cc(Cl)c3O)ccc1O)C2 (centres unmarked) [ZL006-40, bornyl-2-hydroxy-5-(2-hydroxy-3-chloro-5-bromobenzyl) aminobenzoate] | 41.8% | 
CC1(C)C2CCC1(C)C(OC(=O)c1ccc(NCc3cc(Br)cc(Cl)c3O)cc1O)C2 (centres unmarked) [ZL006-39, bornyl-2-hydroxy-4-(2-hydroxy-3-chloro-5-bromobenzyl) aminobenzoate] | 81.2% | 
CC(=O)Oc1c(Cl)cc(Br)cc1CNc1ccc(C(=O)OC2CC3CCC2(C)C3(C)C)c(O)c1 (centres unmarked) [ZL006-78, bornyl-2-hydroxy-4-(2-acetyloxy-3-chloro-5-bromobenzyl) aminobenzoate] | 70.6% | 
CCCC(=O)Oc1cc(NCc2cc(C(F)(F)F)cc(Cl)c2O)ccc1C(=O)OC1CC2CCC1(C)C2(C)C (centres unmarked) [ZL006-52, bornyl-2-butyryloxy-4-(2-hydroxy-3-chloro-5-trifluoromethylbenzyl)aminobenzoate] |  | 40.5%
CC(=O)Oc1cc(NCc2cc(Cl)ccc2O)ccc1C(=O)OC1CC2CCC1(C)C2(C)C (centres unmarked) [ZL006-68, bornyl-2-acetyloxy-4-(2-hydroxy-5-chlorobenzyl) aminobenzoate] | 1.2% | 
CC(=O)Oc1cc(N(Cc2cc(Cl)cc(Cl)c2O)C(C)=O)ccc1C(=O)OC1CC2CCC1(C)C2(C)C (centres unmarked) [ZL006-31, bornyl-2-acetyloxy-4-[N-(2-hydroxy-3,5-dichlorobenzyl)-N-acetyl]aminobenzoate] | 77.3% | 
bornyl-2-(bornyl-2-carbonylethoxy)-4-[N-(2-hydroxy-3,5-dichlorobenzyl)-N-(bornyl-2-carbonylethyl)]aminobenzoate [ZL006-37] | 40.2% | 
